Earlier results in patent US9187467B2, “2-phenyl benzothiazole linked imidazole compounds as potential anticancer agents and process for the preparation thereof” (Council of Scientific and Industrial Research, priority 2012, dated 2015).

Columns and labels:
Set-up in all cases: unit not given here
U251 = conditions: previous compounds (U.S. Pat. No. 7,384,966); cited from earlier work
UACC-257 = conditions: previous compounds (U.S. Pat. No. 7,384,966); cited from earlier work
PC-3 = conditions: previous compounds (U.S. Pat. No. 7,384,966); cited from earlier work
SN12C = conditions: previous compounds (U.S. Pat. No. 7,384,966); cited from earlier work
CAKI-1 = conditions: previous compounds (U.S. Pat. No. 7,384,966); cited from earlier work
SF-268 = conditions: previous compounds (U.S. Pat. No. 7,384,966); cited from earlier work
A549/ATCC = conditions: previous compounds (U.S. Pat. No. 7,384,966); cited from earlier work
HOP-62 = conditions: previous compounds (U.S. Pat. No. 7,384,966); cited from earlier work
MOLT-4 = conditions: previous compounds (U.S. Pat. No. 7,384,966); cited from earlier work
OVCAR-3 = conditions: previous compounds (U.S. Pat. No. 7,384,966); cited from earlier work
BT-549 = conditions: previous compounds (U.S. Pat. No. 7,384,966); cited from earlier work
UACC-62 = conditions: previous compounds (U.S. Pat. No. 7,384,966); cited from earlier work
LOX IMVI = conditions: previous compounds (U.S. Pat. No. 7,384,966); cited from earlier work
EKVX = conditions: previous compounds (U.S. Pat. No. 7,384,966); cited from earlier work
UO-31 = conditions: previous compounds (U.S. Pat. No. 7,384,966); cited from earlier work
ACHN = conditions: previous compounds (U.S. Pat. No. 7,384,966); cited from earlier work
MALME-3M = conditions: previous compounds (U.S. Pat. No. 7,384,966); cited from earlier work
SNB-19 = conditions: previous compounds (U.S. Pat. No. 7,384,966); cited from earlier work
CCRF-CEM = conditions: previous compounds (U.S. Pat. No. 7,384,966); cited from earlier work
SF-295 = conditions: previous compounds (U.S. Pat. No. 7,384,966); cited from earlier work
786-0 = conditions: previous compounds (U.S. Pat. No. 7,384,966); cited from earlier work
HL-60 (TB) = conditions: previous compounds (U.S. Pat. No. 7,384,966); cited from earlier work
NCI-H23 = conditions: previous compounds (U.S. Pat. No. 7,384,966); cited from earlier work
NCI/ADR-RES = conditions: listed as head printed RES (second line of NCI/ADR-RES); previous compounds (U.S. Pat. No. 7,384,966); cited from earlier work
SNB-75 = conditions: previous compounds (U.S. Pat. No. 7,384,966); cited from earlier work
NCI-H522 = conditions: previous compounds (U.S. Pat. No. 7,384,966); cited from earlier work
MDA-MB-231/ATCC = conditions: previous compounds (U.S. Pat. No. 7,384,966); cited from earlier work
DU-145 = conditions: previous compounds (U.S. Pat. No. 7,384,966); cited from earlier work
SW-620 = conditions: previous compounds (U.S. Pat. No. 7,384,966); cited from earlier work
M14 = conditions: previous compounds (U.S. Pat. No. 7,384,966); cited from earlier work
K-562 = conditions: previous compounds (U.S. Pat. No. 7,384,966); cited from earlier work
OVCAR-8 = conditions: previous compounds (U.S. Pat. No. 7,384,966); cited from earlier work
HS 578T = conditions: previous compounds (U.S. Pat. No. 7,384,966); cited from earlier work
SF-539 = conditions: previous compounds (U.S. Pat. No. 7,384,966); cited from earlier work

Measured: Log10GI50

COc1ccc(-c2nc3ccc(F)cc3s2)cc1OC [Compound 3d]
>−4.0: all assays above
